We go through one compound from patent US20200017495A1, “NOVEL HETEROCYCLIC COMPOUNDS AND THEIR USE IN PREVENTING OR TREATING BACTERIAL INFECTIONS” (priority 2017, published 2020).

What all share (test): MIC of compounds alone and combined with antibacterials, broth microdilution (CLSI)
Format in all cases: cell-based

For assay [1], the system named is Morganella morganii (MMO) isolates. Particulars: Morganella morganii, genotype DHA-1, read-out: MIC. The procedure, abridged: (§1)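 Broth microdilution in cation-adjusted Mueller-Hinton broth, inoculum 5.10^5 CFU/mL, 16-20 h at 35° C in ambient air, on genotyped isolates. Compound MIC, alone or with an antibacterial, taken visually as lowest concentration preventing growth; antibacterial MIC determined at each compound concentration.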

The subject of assay [2] is Providencia rettgeri (PRE) isolates. Particulars: Providencia rettgeri, strain PRE UFR236; genotype TEM-1, OXA-48; read-out: MIC. The procedure, abridged:
as §1

The subject of assay [3] is Enterobacter cloacae (ECL) isolates. Particulars: Enterobacter cloacae, read-out: MIC. The procedure, abridged:
as §1

Assay [4] concerns Klebsiella pneumoniae (KPN) isolates. Particulars: Klebsiella pneumoniae, read-out: MIC. The procedure, abridged:
as §1

Where two headings read alike, the source gives them in different places.

The term MIC denotes the lowest concentration that inhibits growth of the organism. Consider `COCC1=C(C(=O)O)N2C(=O)[C@@H](NC(=O)/C(=N\OC)c3csc(N)n3)[C@H]2SC1` [POD, Cefpodoxime], for which the minimum inhibitory concentration (MIC) in assay [1] (strain MMO UFR243) amounted to 64 µg/mL; in assay [1] (strain MMO UFR244) it was 16 µg/mL; in assay [1] (strain MMO UFR245), 64 µg/mL; in assay [1] (strain MMO UFR246) it was 64 µg/mL; in assay [1] (strain MMO UFR247), 64 µg/mL; in assay [2] it was 64 µg/mL. In addition, the MIC in assay [3] (strain ECL P99, genotype AmpC) was > 512 µg/mL; in assay [3] (strain ECL UFR12, genotype CTX-M-9, OXA-48) it was 128 µg/mL; in assay [3] (strain ECL UFR194, genotype OXA-48), 16 µg/mL; in assay [4] (BAA1898, strain KPN BAA-1898, genotype TEM-1, SHV-11, SHV-12, KPC-2), > 512 µg/mL; in assay [4] (strain KPN 6299, genotype TEM-1, SHV-11, OXA-163), 64 µg/mL; in assay [4] (strain KPN 700603, genotype SHV-18, OXA-2) it was 16 µg/mL. In addition, the MIC was found to be 1 µg/mL in assay [4] (strain KPN LIB, genotype SHV-11, OXA-48); 1 µg/mL in assay [4] (strain KPN UFR22_O, genotype TEM-1, SHV-1, OXA-48); 0.5 µg/mL in assay [4] (strain KPN UFR23, genotype TEM-1, SHV-1, OXA-48); 64 µg/mL in assay [4] (strain KPN UFR77, genotype CMY-2); 32 µg/mL in assay [4] (strain KPN UFR79, genotype DHA-1, OXA-1); 2 µg/mL in assay [4] (strain KPN UFR80, genotype SHV-11, DHA-1, OXA-1).
